Patent US20250257134A1, “THERAPEUTIC AND DIAGNOSTIC METHODS FOR BLADDER CANCER” (Genentech, Inc., priority 2022, published 2025)

Experiments:
[1] = tested on: patients with metastatic urothelial carcinoma (mUC); assay: Post hoc analysis of IMvigor130 biomarker-evaluable population: PD-L1 IHC assays (SP142, 22C3) and OS; assay type: in vivo, human
Description: Clinically relevant biomarkers are needed to predict outcomes with immunotherapy in metastatic urothelial carcinoma (mUC). Different PD-L1 assays use various methods (e.g., scoring tumor and/or immune cells) to evaluate anti-PD-L1/PD-1 outcomes. […] Thus, it was hypothesized that the SP142 and 22C3 assays may be differentially associated with OS in IMvigor130 patients, which may be related to PD-L1 localization on specific immune cells such as dendritic cells (DCs). This Example describes a post hoc analysis that studied associations between two PD-L1 IHC assays (i.e., VENTANA SP142 and Dako 22C3) and OS in the biomarker-evaluable population of the IMvigor130 study.
The biomarker-evaluable population in this analysis consisted of patients with archival tumors in Arms B and C (Jun. 14, 2020 cutoff) (Galsky et al. Cancer Res. 81 (13_Supplement): CT042, 2021). Formalin-fixed paraffin-embedded (FFPE) tumor specimens from eligible IMvigor130 study patients were prospectively tested for PD-L1 IHC expression by a central laboratory prior to randomization (see, Example 1 for additional information). The IHC scores had three categories (IC0, IC1, IC2/3). The study enrolled all eligible patients whose tissue is evaluable for expression testing, regardless of PD-L1 expression status.
PD-L1 expression was evaluated by IHC (CellCarta) using the SP142 (Ventana) and 22C3 (Dako) assays in 322 patients treated with atezolizumab monotherapy (Arm B) and 305 patients treated with placebo+platinum-based chemotherapy (Arm C). Samples were also stained for IC subtypes. Assay cutoffs for the SP142 assay were IC ≥5% (IC2/3) and <5% (IC0/1). For the 22C3 assay, cutoffs were CPS ≥10 and <10.
A subset of tumor samples were also stained by IHC for the dendritic cell marker DC-LAMP (Clone 1010E1.01, Novus Biologicals). In silico deconvolution by xCell (Aran et al. Genome Biol. 18 (1): 220, 2017) was performed. Statistical analysis was performed to compare OS between subgroups using the stratified log-rank test.

[2] = tested on: patients with untreated locally advanced or metastatic urothelial carcinoma; assay: Phase III IMvigor130 study: overall survival, atezolizumab monotherapy (Arm B) vs placebo + platinum-based chemotherapy (Arm C); assay type: in vivo, human; conditions: 1L mUC, May 31, 2019 cutoff
Description: This Example describes the IMvigor130 study, which is a Phase III, multicenter, randomized, placebo-controlled, partially blind study designed to evaluate the efficacy of atezolizumab given as monotherapy or in combination with platinum-based chemotherapy versus placebo in combination with platinum-based chemotherapy in patients with locally advanced or metastatic urothelial carcinoma who have not received prior systemic therapy.
The primary efficacy objective for this study is to evaluate the efficacy of atezolizumab plus platinum-based chemotherapy compared with placebo plus platinum-based chemotherapy on the basis of the following endpoints: • Co-primary endpoints of progression-free survival (PFS) and overall survival (OS) • PFS is defined as the time from randomization to the first documented disease progression as determined by the investigator with use of RECIST v1.1, or death due to any cause, whichever occurs first. • OS is defined as the time from randomization to death due to any cause. […]
Randomization was stratified by the following factors: • PD-L1 status (IC0 (<1%) vs. IC1 (≥1% and <5%) vs. IC2/3 (≥5%)). • Bajorin model risk factor score/liver metastasis (0 vs. 1 vs. 2 or patients with liver metastasis). • Investigator-determined chemotherapy (gemcitabine and carboplatin vs. gemcitabine and cisplatin). […]

[3] = patients receiving atezolizumab monotherapy, biomarker-evaluable population, Jun. 14, 2020 cutoff
[4] = untreated locally advanced or metastatic UC

atezolizumab: Fc-engineered, humanized, non-glycosylated IgG1 kappa immunoglobulin that binds PD-L1; heavy chain SEQ ID NO: 1, light chain SEQ ID NO: 2
OS HR by 22C3 CPS scoring (CPS ≥10 versus CPS <10) [1, 3]: 0.83 (0.63, 1.10)
OS HR by SP142 scoring (IC2/3 versus IC0/1) [1, 3]: 0.55 (0.39, 0.77)
OS in SP142 IC2/3 versus IC0/1 tumours ([1]; patients with mUC): longer OS
OS by combined tumor status SP142 IC0/1 + 22C3 CPS ≥10 [1, 4]: shorter OS
OS by combined tumor status SP142 IC2/3 + 22C3 CPS ≥10 (double positive) [1, 4]: longer OS
overall survival (OS) HR, atezolizumab monotherapy (Arm B) versus placebo+platinum-based chemotherapy (Arm C) ([2]; PD-L1 IC2/3 by SP142 IHC assay): 0.68
overall survival (OS) HR, atezolizumab monotherapy (Arm B) versus placebo+platinum-based chemotherapy (Arm C) ([2]; PD-L1 IC2/3 cisplatin ineligible): 0.53
